# From PubChem BioAssay (NCI)
# Several values for one entry are separate records, joined by “and”; a condition that tells them apart may be missing. Equal values may be shown once.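 All cell lines were grown in 96-well plates and treated with compound for 48 hours. GI50 marks 50% less growth. TGI marks complete inhibition of growth.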
# Legend:
# Experiment in all cases: inhibition of tumour cell growth, NCI panel, 48 h
# MOLT-4 leukemia = system: MOLT-4 leukemia
# NCI/ADR-RES ovarian = system: NCI/ADR-RES ovarian
# OVCAR-8 ovarian = system: OVCAR-8 ovarian
# HCT-116 colon = system: HCT-116 colon
# A549 NSCLC = system: A549 NSCLC
# ACHN renal = system: ACHN renal
# KM12 colon = system: KM12 colon
# NCI-H460 lung = system: NCI-H460 lung
# SK-MEL-5 melanoma = system: SK-MEL-5 melanoma
# SK-MEL-2 melanoma = system: SK-MEL-2 melanoma
# UACC-62 melanoma = system: UACC-62 melanoma
# SF-268 CNS = system: SF-268 CNS
# RXF 393 renal = system: RXF 393 renal
# NCI-H23 lung = system: NCI-H23 lung
# MDA-MB-231 breast = system: MDA-MB-231 breast
# HCC-2998 colon = system: HCC-2998 colon
# 786-0 renal = system: 786-0 renal
# SF-539 CNS = system: SF-539 CNS
# MDA-MB-435 = system: MDA-MB-435
# SNB-75 CNS = system: SNB-75 CNS
# M14 melanoma = system: M14 melanoma
# U251 CNS = system: U251 CNS
# OVCAR-3 ovarian = system: OVCAR-3 ovarian
# NCI-H226 lung = system: NCI-H226 lung
# HCT-15 colon = system: HCT-15 colon
# PC-3 prostate = system: PC-3 prostate
# BT-549 breast = system: BT-549 breast
# HOP-92 NSCLC = system: HOP-92 NSCLC
# A498 renal = system: A498 renal
# OVCAR-4 ovarian = system: OVCAR-4 ovarian
# UO-31 renal = system: UO-31 renal
# TK-10 renal = system: TK-10 renal
# IGROV1 ovarian = system: IGROV1 ovarian
# SN12C renal = system: SN12C renal
# SK-OV-3 ovarian = system: SK-OV-3 ovarian
# CAKI-1 renal = system: CAKI-1 renal
# K-562 leukemia = system: K-562 leukemia
# OVCAR-5 ovarian = system: OVCAR-5 ovarian
# HT29 colon = system: HT29 colon
# NCI-H522 lung = system: NCI-H522 lung
# UACC-257 melanoma = system: UACC-257 melanoma
# RPMI-8226 leukemia = system: RPMI-8226 leukemia
# MCF7 breast = system: MCF7 breast
# HL-60(TB) leukemia = system: HL-60(TB) leukemia
# MALME-3M melanoma = system: MALME-3M melanoma
# HS 578T breast = system: HS 578T breast
# SW-620 colon = system: SW-620 colon
# T-47D breast = system: T-47D breast
# COLO 205 colon = system: COLO 205 colon
# SF-295 CNS = system: SF-295 CNS
# HOP-62 NSCLC = system: HOP-62 NSCLC
# MDA-N = system: MDA-N
# EKVX NSCLC = system: EKVX NSCLC
# DU-145 prostate = system: DU-145 prostate
# LOX IMVI melanoma = system: LOX IMVI melanoma
# SR leukemia = system: SR leukemia
# SK-MEL-28 melanoma = system: SK-MEL-28 melanoma
# SNB-19 CNS = system: SNB-19 CNS
# CCRF-CEM leukemia = system: CCRF-CEM leukemia
smiles,measurement,setting,value
CC(C)(S)C(N)C(=O)O (stereo not drawn),GI50,MOLT-4 leukemia,3040 µM
same,TGI,MOLT-4 leukemia,> 5000 µM
same,GI50,NCI/ADR-RES ovarian,3650 µM
same,TGI,NCI/ADR-RES ovarian,> 5000 µM
same,GI50,OVCAR-8 ovarian,3450 µM
same,TGI,OVCAR-8 ovarian,> 5000 µM
same,GI50,HCT-116 colon,1860 µM
same,TGI,HCT-116 colon,> 5000 µM
same,GI50,A549 NSCLC,1780 µM
same,TGI,A549 NSCLC,> 5000 µM
same,GI50,ACHN renal,> 5000 µM
same,TGI,ACHN renal,> 5000 µM
same,GI50,KM12 colon,1470 µM
same,TGI,KM12 colon,4710 µM and > 100 µM
same,GI50,NCI-H460 lung,937 µM
same,TGI,NCI-H460 lung,2730 µM and > 100 µM
same,GI50,SK-MEL-5 melanoma,895 µM
same,TGI,SK-MEL-5 melanoma,2390 µM and > 100 µM
same,GI50,SK-MEL-2 melanoma,2390 µM
same,TGI,SK-MEL-2 melanoma,> 5000 µM
same,GI50,UACC-62 melanoma,4760 µM
same,TGI,UACC-62 melanoma,> 5000 µM
same,GI50,SF-268 CNS,1740 µM
same,TGI,SF-268 CNS,> 5000 µM
same,GI50,RXF 393 renal,> 5000 µM
same,TGI,RXF 393 renal,> 5000 µM
same,GI50,NCI-H23 lung,1510 µM
same,TGI,NCI-H23 lung,> 5000 µM
same,GI50,MDA-MB-231 breast,2660 µM
same,TGI,MDA-MB-231 breast,> 5000 µM
same,GI50,HCC-2998 colon,1450 µM
same,TGI,HCC-2998 colon,4340 µM
same,GI50,786-0 renal,> 5000 µM
same,TGI,786-0 renal,> 5000 µM
same,GI50,SF-539 CNS,1420 µM
same,TGI,SF-539 CNS,4370 µM and > 100 µM
same,GI50,MDA-MB-435,1890 µM
same,TGI,MDA-MB-435,> 5000 µM
same,GI50,SNB-75 CNS,> 5000 µM
same,TGI,SNB-75 CNS,> 5000 µM
same,GI50,M14 melanoma,4370 µM
same,TGI,M14 melanoma,> 5000 µM
same,GI50,U251 CNS,1780 µM
same,TGI,U251 CNS,> 5000 µM
same,GI50,OVCAR-3 ovarian,1250 µM
same,TGI,OVCAR-3 ovarian,3990 µM and > 100 µM
same,GI50,NCI-H226 lung,> 5000 µM
same,TGI,NCI-H226 lung,> 5000 µM
same,GI50,HCT-15 colon,1950 µM
same,TGI,HCT-15 colon,> 5000 µM
same,GI50,PC-3 prostate,1320 µM
same,TGI,PC-3 prostate,> 5000 µM
same,GI50,BT-549 breast,1570 µM
same,TGI,BT-549 breast,4110 µM and > 100 µM
same,GI50,HOP-92 NSCLC,2960 µM
same,TGI,HOP-92 NSCLC,> 5000 µM
same,TGI,A498 renal,> 100 µM
same,GI50,OVCAR-4 ovarian,> 5000 µM
same,TGI,OVCAR-4 ovarian,> 5000 µM
same,GI50,UO-31 renal,> 5000 µM
same,TGI,UO-31 renal,> 5000 µM
same,GI50,TK-10 renal,2610 µM
same,TGI,TK-10 renal,> 5000 µM
same,TGI,IGROV1 ovarian,> 100 µM
same,GI50,SN12C renal,> 5000 µM
same,TGI,SN12C renal,> 5000 µM
same,GI50,SK-OV-3 ovarian,2600 µM
same,TGI,SK-OV-3 ovarian,> 5000 µM
same,GI50,CAKI-1 renal,983 µM
same,TGI,CAKI-1 renal,2570 µM and > 100 µM
same,GI50,K-562 leukemia,2390 µM
same,TGI,K-562 leukemia,> 5000 µM
same,GI50,OVCAR-5 ovarian,> 5000 µM
same,TGI,OVCAR-5 ovarian,> 5000 µM
same,GI50,HT29 colon,> 5000 µM
same,TGI,HT29 colon,> 5000 µM
same,GI50,NCI-H522 lung,4600 µM
same,TGI,NCI-H522 lung,> 5000 µM
same,GI50,UACC-257 melanoma,4860 µM
same,TGI,UACC-257 melanoma,> 5000 µM
same,GI50,RPMI-8226 leukemia,3830 µM
same,TGI,RPMI-8226 leukemia,> 5000 µM
same,GI50,MCF7 breast,994 µM
same,TGI,MCF7 breast,2200 µM and > 100 µM
same,GI50,HL-60(TB) leukemia,3640 µM
same,TGI,HL-60(TB) leukemia,> 5000 µM
same,GI50,MALME-3M melanoma,1130 µM
same,TGI,MALME-3M melanoma,3400 µM and > 100 µM
same,TGI,HS 578T breast,> 100 µM
same,GI50,SW-620 colon,2220 µM
same,TGI,SW-620 colon,> 5000 µM
same,GI50,T-47D breast,1170 µM
same,TGI,T-47D breast,2680 µM and > 100 µM
same,GI50,COLO 205 colon,1180 µM
same,TGI,COLO 205 colon,2880 µM and > 100 µM
same,GI50,SF-295 CNS,963 µM
same,TGI,SF-295 CNS,3660 µM and > 100 µM
same,GI50,HOP-62 NSCLC,> 5000 µM
same,TGI,HOP-62 NSCLC,> 5000 µM
same,TGI,MDA-N,> 100 µM
same,GI50,EKVX NSCLC,1190 µM
same,TGI,EKVX NSCLC,3600 µM and > 100 µM
same,GI50,DU-145 prostate,1600 µM
same,TGI,DU-145 prostate,> 5000 µM
same,GI50,LOX IMVI melanoma,1590 µM
same,TGI,LOX IMVI melanoma,> 5000 µM
same,GI50,SR leukemia,1840 µM
same,TGI,SR leukemia,> 5000 µM
same,GI50,SK-MEL-28 melanoma,> 5000 µM
same,TGI,SK-MEL-28 melanoma,> 5000 µM
same,GI50,SNB-19 CNS,3370 µM
same,TGI,SNB-19 CNS,> 5000 µM
same,GI50,CCRF-CEM leukemia,612 µM
same,TGI,CCRF-CEM leukemia,> 5000 µM
CC1CC[C@@]2(OC1)OC1C[C@H]3[C@@H]4CC[C@H]5CC(OC6OC(CO)C(O)C(OC7OC(CO)C(OC8OC(CO)C(O)C(OC9OC(CO)C(O)C(O)C9O)C8OC8OC(CO)C(O)C(O)C8O)C(O)C7O)C6O)[C@H](O)CC5(C)[C@H]4CCC3(C)C1[C@@H]2C (stereo partly drawn),TGI,MOLT-4 leukemia,16.4 µM
same,TGI,NCI/ADR-RES ovarian,12.5 µM
same,TGI,OVCAR-8 ovarian,6.67 µM
same,TGI,HCT-116 colon,11.5 µM
same,TGI,A549 NSCLC,21.6 µM
same,TGI,ACHN renal,7.4 µM
same,TGI,KM12 colon,12.2 µM
same,TGI,NCI-H460 lung,15.5 µM
same,TGI,SK-MEL-5 melanoma,13.6 µM
same,TGI,SK-MEL-2 melanoma,9.78 µM
same,TGI,UACC-62 melanoma,16.6 µM
same,TGI,SF-268 CNS,11.3 µM
same,TGI,RXF 393 renal,3.27 µM
same,TGI,NCI-H23 lung,12.7 µM
same,TGI,MDA-MB-231 breast,5.87 µM
same,TGI,HCC-2998 colon,4.71 µM
same,TGI,786-0 renal,6.76 µM
same,TGI,SF-539 CNS,6.76 µM
same,TGI,MDA-MB-435,14.6 µM
same,TGI,SNB-75 CNS,10.9 µM
same,TGI,M14 melanoma,17.6 µM
same,TGI,U251 CNS,9.43 µM
same,TGI,OVCAR-3 ovarian,1.93 µM
same,TGI,NCI-H226 lung,13.3 µM
same,TGI,HCT-15 colon,19.3 µM
same,TGI,PC-3 prostate,6.66 µM
same,TGI,BT-549 breast,10.5 µM
same,TGI,HOP-92 NSCLC,12.1 µM
same,TGI,A498 renal,3.16 µM
same,TGI,OVCAR-4 ovarian,9.55 µM
same,TGI,UO-31 renal,6.9 µM
same,TGI,TK-10 renal,11.8 µM
same,TGI,IGROV1 ovarian,4.59 µM
same,TGI,SN12C renal,9.03 µM
same,TGI,SK-OV-3 ovarian,14.1 µM
same,TGI,CAKI-1 renal,11.3 µM
same,TGI,K-562 leukemia,12.4 µM
same,TGI,OVCAR-5 ovarian,12.9 µM
same,TGI,HT29 colon,11.1 µM
same,TGI,NCI-H522 lung,5.35 µM
same,TGI,UACC-257 melanoma,16.9 µM
same,TGI,RPMI-8226 leukemia,12.9 µM
same,TGI,MCF7 breast,5.43 µM
same,TGI,HL-60(TB) leukemia,9.3 µM
same,TGI,MALME-3M melanoma,15.1 µM
same,TGI,HS 578T breast,6.16 µM
same,TGI,SW-620 colon,8.32 µM
same,TGI,T-47D breast,4.58 µM
same,TGI,COLO 205 colon,6.04 µM
same,TGI,SF-295 CNS,9.39 µM
same,TGI,HOP-62 NSCLC,11.3 µM
same,TGI,MDA-N,13.8 µM
same,TGI,EKVX NSCLC,10.8 µM
same,TGI,DU-145 prostate,12.1 µM
same,TGI,LOX IMVI melanoma,9.05 µM
same,TGI,SR leukemia,2.98 µM
same,TGI,SK-MEL-28 melanoma,14.5 µM
same,TGI,SNB-19 CNS,9.47 µM
same,TGI,CCRF-CEM leukemia,10.2 µM
